According to patent US6653529B2, “Use of the maize X112 mutant ahas 2 gene and imidazolinone herbicides for selection of transgenic monocots, maize, rice and wheat plants resistant to the imidazolinone herbicides” (BASF Aktiengesellschaft, priority 2000, dated 2003):

How the values were obtained:
[1] = test system: T2 seeds of transgenic rice (T0 plants No. 26 and 29); test: Seed germination test on imazethapyr; type: in vivo; conditions: 5 μM imazethapyr, 1 month treatment
Method: Three tests were performed to evaluate herbicide resistance of T2 progeny of transgenic rice. T2 progeny were first evaluated by a seed germination test followed by the greenhouse spray test and PCR analysis. As a prelude to testing the transgenic plants, an experiment was conducted to germinate untransformed rice seeds at imazethapyr concentrations ranging from 0.1 to 10 μM. […] The greenhouse spray test and PCR analysis were used to further confirm the results of the seed germination test with consistent identification of lines as resistant homozygous, susceptible homozygous or segregating hemizygous.
T2 seeds harvested from individual T1 plants were sterilized in 50% Clorox® bleach (2.3% sodium hyperchlorite) for 30 min followed by a thorough rinse with autoclaved water and pre-germinated in water for 2-3 days. Thirty to 35 pre-germinated seeds were transferred to the surface of folded paper towels placed perpendicular to the bottom of a Magenta box (Sigma, St. Louis, Mo.) to which 20 ml of H2O containing 5 μM imazethapyr (AC263,499, tech grade) was added. The seedlings were grown under 12 hr light at 26° C. for about a month. Seedlings that survived the imazethapyr treatment were scored as resistant and those that died as susceptible. 5.0 μM imazethapyr, equivalent to 5 times the threshold, was used for subsequent seed germination tests of the T2 generation. T2 seeds harvested from 16 T1 lines derived from T0 plant No. 26 and those from 15 T1 lines derived from T0 plant No. 29 were screened in the seed germination tests.

[2] = test system: T1 corn plants of 1B1 (self and B73×1B1); test: Spray test of T1 progeny of transgenic corn plant 1B1; type: in vivo; conditions: 4× (250 ai g/ha) at 3-leaf stage; 6 self and 8 B73×1B1 T1 plants
Method: Transgenic corn plants were evaluated in the greenhouse for resistant levels to various imidazolinone herbicides and inheritance of the transgene. For corn, our protocol involved self- or cross-pollinating the transgenic plants for 2 to 3 generations and spraying T1 progeny plants to identify the resistant vs. susceptible plants. Detailed analysis for levels of herbicide resistance and the inheritance pattern. Identification of lines homozygous for the transgene is carried out in T2 generation with self-pollination and cross-pollination derived progeny plants. […] B73 and Mo17 lines were obtained USDA/ARS and Crop Sciences, UIUC, Urbana, Ill. 61801-4798. T1 plants were treated with 4×PURSUIT® imazethapyr (250 ai g/ha) at 3-leaf stage and rated as either resistant or susceptible to the herbicide. A total of 6 self and 8 B73×1B1 T1 plants were sprayed and all survived the herbicide treatments.

[3] = test system: transgenic rice Line 29 (maize XI12 ahas2 gene); test: Greenhouse spray test of rice with PURSUIT imazethapyr (pre- and post-emergence); type: in vivo
[4] = test system: Nortai (control) suspension cells; test: In vitro growth of suspension cells on imazethapyr; type: cell-based, rice
Method: (§1) Cell suspension cultures were initiated from immature embryo-derived calli from either transgenic homozygous T2 plant 26-4-10 or Nortai plants in 3SN6d2 liquid medium and cultured two to three months prior to treatment with various concentrations of imazethapyr. The suspension cells were filtered through a 40μ nylon mesh, collected, and resuspended in 3SN6d2 liquid medium 0.2 ml of the suspended cells were loaded onto a Millipore filter, then placed on top of agarose solidified medium containing 0, 0.1, 0.25, 0.5, 1.0, 2.5, 5, 10, 25, or 50 μM imazethapyr (AC263,499). Three weeks later, all cultures were transferred once to fresh media with the same concentrations of imazethapyr and grown for another 5 weeks. Fresh weight was measured at the end of an 8-week culture period.

[5] = test system: transgenic suspension cells (T2 plant 26-4-10); test: In vitro growth of suspension cells on imazethapyr; type: cell-based, rice; conditions: 8-week culture
Method: as §1

[6] = post-emergence, Rate 63 (g ai/ha)
[7] = post-emergence, Rate 125 (g ai/ha)
[8] = post-emergence, Rate 250 (g ai/ha)

With `CCc1cnc(C2=NC(C)(C(C)C)C(=O)N2)c(C(=O)O)c1` (stereo not shown) [PURSUIT ®, imazethapyr] the “fate of resistant transgenic plants” value [1] was “survived and continued to grow”, the “survival of T1 plants” value [2] was “all survived” and the “No. panicles/plant Mean” value [3, 6] was 27.7. The “No. tillers/plant Mean” value [3, 6] was 34.5, the “Plant height Mean” value [3, 6] was 112.5 cm and the “Yield % 0×” value [3, 6] was 93 % 0×. The “Yield Mean” value [3, 6] was 199.0 g/5 plants, the “No. panicles/plant Mean” value [3, 7] was 24.5 and the “No. tillers/plant Mean” value [3, 7] was 28.3. For the same compound, the “Plant height Mean” value [3, 7] was 114.1 cm, the “Yield % 0×” value [3, 7] was 113 % 0× and the “Yield Mean” value [3, 7] was 240.7 g/5 plants. For the same compound, the “No. panicles/plant Mean” value [3, 8] was 23.0, the “No. tillers/plant Mean” value [3, 8] was 24.1 and the “Plant height Mean” value [3, 8] was 110.2 cm. The “Yield % 0×” value [3, 8] was 93 % 0×, the “Yield Mean” value [3, 8] was 197.3 g/5 plants and the “No. panicles/plant Mean” value ([3]; pre-emergence, 63 g/ha) was 15.6. The “No. tillers/plant Mean” value ([3]; pre-emergence, 63 g/ha) was 16.2, the “Plant height Mean” value ([3]; pre-emergence, 63 g/ha) was 92.7 cm and the “Yield % 0×” value ([3]; pre-emergence, 63 g/ha) was 93 % 0×. The “Yield Mean” value ([3]; pre-emergence, 63 g/ha) was 156.3 g/5 plants, the “No. panicles/plant Mean” value ([3]; pre-emergence, 125 g/ha) was 16.3 and the “No. tillers/plant Mean” value ([3]; pre-emergence, 125 g/ha) was 14.3. The “Plant height Mean” value ([3]; pre-emergence, 125 g/ha) was 95.1 cm, the “Yield % 0×” value ([3]; pre-emergence, 125 g/ha) was 99 % 0× and the “Yield Mean” value ([3]; pre-emergence, 125 g/ha) was 166.7 g/5 plants. For the same compound, the “No. panicles/plant Mean” value ([3]; pre-emergence, 250 g/ha) was 16.2, the “No. tillers/plant Mean” value ([3]; pre-emergence, 250 g/ha) was 16.3 and the “Plant height Mean” value ([3]; pre-emergence, 250 g/ha) was 93.1 cm. The “Yield % 0×” value ([3]; pre-emergence, 250 g/ha) was 92 % 0×, the “Yield Mean” value ([3]; pre-emergence, 250 g/ha) was 155.3 g/5 plants and the “concentrations that inhibit the growth of untransformed rice cells” value ([4]; in vitro) was at least 0.1 µM. The “concentration at which growth of control cells was halted” value ([4]; lowest concentration used, 8-week culture) was 0.1 μm, the “concentration up to which growth of transgenic suspension cells was normal” value [5] was “up to 1.0 μm” and the “concentration with no growth” value [5] was 5 μm. The “concentration with sharp decrease in growth” value [5] was 2 μm.
